# Measured values: ChEMBL document CHEMBL1201862, “PubChem BioAssay data set” (2004)
#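 Results reflect a 48-hour exposure of cells in 96-well plates to compound at five concentrations. GI50: concentration for 50% inhibition of growth.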 Active and inactive are the calls of the source. No stated cut-off is given here; in the data, active = GI50 up to about 1.1 µM and inactive = higher.
# Key:
# Test in all cases: inhibition of tumour cell growth, NCI panel, 48 h
# 786-0 = system: 786-0
# A498 = system: A498
# A549 = system: A549
# ACHN = system: ACHN
# BT-549 = system: BT-549
# CAKI-1 = system: CAKI-1
# CCRF-CEM = system: CCRF-CEM
# COLO 205 = system: COLO 205
# DU-145 = system: DU-145
# EKVX = system: EKVX
# HCC 2998 = system: HCC 2998
# HCT-116 = system: HCT-116
# HCT-15 = system: HCT-15
# HL-60 = system: HL-60
# HOP-62 = system: HOP-62
# HOP-92 = system: HOP-92
# HT-29 = system: HT-29
# Hs-578T = system: Hs-578T
# IGROV-1 = system: IGROV-1
# K562 = system: K562
# KM12 = system: KM12
# LOX IMVI = system: LOX IMVI
# M14 = system: M14
# MCF7 = system: MCF7
# MDA-MB-231 = system: MDA-MB-231
# MDA-MB-435 = system: MDA-MB-435
# MDA-N = system: MDA-N
# MOLT-4 = system: MOLT-4
# Malme-3M = system: Malme-3M
# NCI-H23 = system: NCI-H23
# NCI-H460 = system: NCI-H460
# NCI-H522 = system: NCI-H522
# NCI/ADR-RES = system: NCI/ADR-RES
# OVCAR-3 = system: OVCAR-3
# OVCAR-4 = system: OVCAR-4
# OVCAR-5 = system: OVCAR-5
# OVCAR-8 = system: OVCAR-8
# PC-3 = system: PC-3
# RXF 393 = system: RXF 393
# SF-268 = system: SF-268
# SF-295 = system: SF-295
# SK-MEL-28 = system: SK-MEL-28
# SK-MEL-5 = system: SK-MEL-5
# SK-OV-3 = system: SK-OV-3
# SN12C = system: SN12C
# SNB-19 = system: SNB-19
# SNB-75 = system: SNB-75
# SR = system: SR
# SW-620 = system: SW-620
# T47D = system: T47D
# TK-10 = system: TK-10
# U-251 = system: U-251
# UACC-257 = system: UACC-257
# UACC-62 = system: UACC-62
# UO-31 = system: UO-31
# NCI-H226 = system: NCI-H226
# RPMI-8226 = system: RPMI-8226
# SF-539 = system: SF-539
# SK-MEL-2 = system: SK-MEL-2
compound,measurement,setting,value
Cc1ccc2c(c1)SSSSS2,GI50,786-0,15.8 µM (inactive)
same,GI50,A498,18.9 µM (inactive)
same,GI50,A549,20.4 µM (inactive)
same,GI50,ACHN,18.4 µM (inactive)
same,GI50,BT-549,19.8 µM (inactive)
same,GI50,CAKI-1,21 µM (inactive)
same,GI50,CCRF-CEM,4.1 µM (inactive)
same,GI50,COLO 205,29.4 µM (inactive)
same,GI50,DU-145,16.6 µM (inactive)
same,GI50,EKVX,23.3 µM (inactive)
same,GI50,HCC 2998,17.7 µM (inactive)
same,GI50,HCT-116,14.3 µM (inactive)
same,GI50,HCT-15,14.1 µM
same,GI50,HL-60,20 µM (inactive)
same,GI50,HOP-62,20.2 µM (inactive)
same,GI50,HOP-92,18.5 µM (inactive)
same,GI50,HT-29,28.1 µM (inactive)
same,GI50,Hs-578T,26.9 µM (inactive)
same,GI50,IGROV-1,19.3 µM (inactive)
same,GI50,K562,22.1 µM (inactive)
same,GI50,KM12,18.9 µM (inactive)
same,GI50,LOX IMVI,16.2 µM (inactive)
same,GI50,M14,21.3 µM (inactive)
same,GI50,MCF7,18.6 µM (inactive)
same,GI50,MDA-MB-231,25.6 µM (inactive)
same,GI50,MDA-MB-435,21 µM (inactive)
same,GI50,MDA-N,23.4 µM (inactive)
same,GI50,MOLT-4,30.5 µM (inactive)
same,GI50,Malme-3M,17.7 µM (inactive)
same,GI50,NCI-H23,20.8 µM (inactive)
same,GI50,NCI-H460,18.4 µM (inactive)
same,GI50,NCI-H522,16.3 µM (inactive)
same,GI50,NCI/ADR-RES,25.4 µM (inactive)
same,GI50,OVCAR-3,21.8 µM (inactive)
same,GI50,OVCAR-4,18.3 µM (inactive)
same,GI50,OVCAR-5,22.1 µM (inactive)
same,GI50,OVCAR-8,21.9 µM (inactive)
same,GI50,PC-3,22.5 µM (inactive)
same,GI50,RXF 393,21.1 µM (inactive)
same,GI50,SF-268,25.8 µM (inactive)
same,GI50,SF-295,19.8 µM (inactive)
same,GI50,SK-MEL-28,17.1 µM (inactive)
same,GI50,SK-MEL-5,19.1 µM (inactive)
same,GI50,SK-OV-3,21.9 µM (inactive)
same,GI50,SN12C,16.5 µM (inactive)
same,GI50,SNB-19,20.6 µM (inactive)
same,GI50,SNB-75,23.8 µM (inactive)
same,GI50,SR,40.3 µM (inactive)
same,GI50,SW-620,15.1 µM (inactive)
same,GI50,T47D,12.6 µM (inactive)
same,GI50,TK-10,20 µM (inactive)
same,GI50,U-251,34.3 µM (inactive)
same,GI50,UACC-257,17.6 µM (inactive)
same,GI50,UACC-62,18.3 µM (inactive)
same,GI50,UO-31,16.3 µM (inactive)
COc1ccc(-n2c(CCC(=O)O)nc3c2C(=O)c2ccccc2C3=O)cc1,GI50,786-0,> 100 µM (inactive)
same,GI50,A498,> 100 µM (inactive)
same,GI50,A549,> 100 µM (inactive)
same,GI50,ACHN,> 100 µM (inactive)
same,GI50,BT-549,> 100 µM (inactive)
same,GI50,CAKI-1,> 100 µM (inactive)
same,GI50,CCRF-CEM,88.9 µM (inactive)
same,GI50,COLO 205,> 100 µM (inactive)
same,GI50,DU-145,> 100 µM (inactive)
same,GI50,EKVX,> 100 µM (inactive)
same,GI50,HCC 2998,> 100 µM (inactive)
same,GI50,HCT-116,80.2 µM (inactive)
same,GI50,HCT-15,> 100 µM
same,GI50,HL-60,> 100 µM (inactive)
same,GI50,HOP-62,> 100 µM (inactive)
same,GI50,HT-29,> 100 µM (inactive)
same,GI50,Hs-578T,> 100 µM (inactive)
same,GI50,K562,71.3 µM (inactive)
same,GI50,KM12,> 100 µM (inactive)
same,GI50,LOX IMVI,28.3 µM (inactive)
same,GI50,M14,> 100 µM (inactive)
same,GI50,MCF7,84.5 µM (inactive)
same,GI50,MDA-MB-231,> 100 µM (inactive)
same,GI50,MDA-MB-435,96.4 µM (inactive)
same,GI50,MDA-N,> 100 µM (inactive)
same,GI50,MOLT-4,> 100 µM (inactive)
same,GI50,NCI-H226,> 100 µM (inactive)
same,GI50,NCI-H23,> 100 µM (inactive)
same,GI50,NCI-H460,> 100 µM (inactive)
same,GI50,NCI-H522,34.3 µM (inactive)
same,GI50,NCI/ADR-RES,> 100 µM (inactive)
same,GI50,OVCAR-3,98.2 µM (inactive)
same,GI50,OVCAR-4,> 100 µM (inactive)
same,GI50,OVCAR-5,> 100 µM (inactive)
same,GI50,OVCAR-8,> 100 µM (inactive)
same,GI50,PC-3,> 100 µM (inactive)
same,GI50,RPMI-8226,> 100 µM (inactive)
same,GI50,RXF 393,> 100 µM (inactive)
same,GI50,SF-268,> 100 µM (inactive)
same,GI50,SF-295,> 100 µM (inactive)
same,GI50,SF-539,> 100 µM (inactive)
same,GI50,SK-MEL-28,> 100 µM (inactive)
same,GI50,SK-MEL-2,88.1 µM (inactive)
same,GI50,SK-MEL-5,> 100 µM (inactive)
same,GI50,SK-OV-3,> 100 µM (inactive)
same,GI50,SN12C,> 100 µM (inactive)
same,GI50,SNB-19,> 100 µM (inactive)
same,GI50,SNB-75,> 100 µM (inactive)
same,GI50,SR,> 100 µM (inactive)
same,GI50,SW-620,> 100 µM (inactive)
same,GI50,T47D,33 µM (inactive)
same,GI50,TK-10,> 100 µM (inactive)
same,GI50,U-251,> 100 µM (inactive)
same,GI50,UACC-257,> 100 µM (inactive)
same,GI50,UACC-62,> 100 µM (inactive)
same,GI50,UO-31,> 100 µM (inactive)
CCCCCCNC(=O)c1cc(CCc2cc(O)ccc2O)ccc1O,GI50,786-0,2.04 µM (inactive)
same,GI50,A498,4.24 µM (inactive)
same,GI50,A549,7.83 µM (inactive)
same,GI50,ACHN,2.66 µM (inactive)
same,GI50,BT-549,1.94 µM (inactive)
same,GI50,CAKI-1,3.32 µM (inactive)
same,GI50,CCRF-CEM,1.92 µM (inactive)
same,GI50,COLO 205,10.9 µM (inactive)
same,GI50,DU-145,6.78 µM (inactive)
same,GI50,EKVX,5.75 µM (inactive)
same,GI50,HCC 2998,3.15 µM (inactive)
same,GI50,HCT-15,2.48 µM
same,GI50,HL-60,0.723 µM (active)
same,GI50,HOP-62,6.24 µM (inactive)
same,GI50,HOP-92,1.72 µM (inactive)
same,GI50,HT-29,20.1 µM (inactive)
same,GI50,Hs-578T,3.59 µM (inactive)
same,GI50,IGROV-1,2.1 µM (inactive)
same,GI50,K562,2.38 µM (inactive)
same,GI50,KM12,4.46 µM (inactive)
same,GI50,LOX IMVI,4.67 µM (inactive)
same,GI50,M14,6.05 µM (inactive)
same,GI50,MCF7,3.25 µM (inactive)
same,GI50,MDA-MB-231,2.25 µM (inactive)
same,GI50,MDA-MB-435,3.61 µM (inactive)
same,GI50,MDA-N,2.66 µM (inactive)
same,GI50,MOLT-4,1.93 µM (inactive)
same,GI50,Malme-3M,2.35 µM (inactive)
same,GI50,NCI-H226,4.23 µM (inactive)
same,GI50,NCI-H23,7.89 µM (inactive)
same,GI50,NCI-H460,8.57 µM (inactive)
same,GI50,NCI-H522,0.916 µM (active)
same,GI50,NCI/ADR-RES,3.61 µM (inactive)
same,GI50,OVCAR-3,2.3 µM (inactive)
same,GI50,OVCAR-4,2.47 µM (inactive)
same,GI50,OVCAR-5,7.05 µM (inactive)
same,GI50,OVCAR-8,3.56 µM (inactive)
same,GI50,PC-3,2.18 µM (inactive)
same,GI50,RPMI-8226,1.11 µM (active)
same,GI50,RXF 393,1.8 µM (inactive)
same,GI50,SF-268,2.77 µM (inactive)
same,GI50,SF-295,14.1 µM (inactive)
same,GI50,SK-MEL-28,2.74 µM (inactive)
same,GI50,SK-MEL-2,2.74 µM (inactive)
same,GI50,SK-MEL-5,4.62 µM (inactive)
same,GI50,SK-OV-3,9.95 µM (inactive)
same,GI50,SNB-19,10.7 µM (inactive)
same,GI50,SNB-75,4.93 µM (inactive)
same,GI50,SR,2.23 µM (inactive)
same,GI50,SW-620,7.66 µM (inactive)
same,GI50,T47D,1.85 µM (inactive)
same,GI50,TK-10,2.96 µM (inactive)
same,GI50,U-251,2.3 µM (inactive)
same,GI50,UACC-257,2.2 µM (inactive)
same,GI50,UO-31,1.55 µM (inactive)
